According to US9115102B2, “N-[2-hydroxycarbamoyl-2-(piperazinyl) ethyl] benzamide compounds, their preparation and their use as TACE inhibitors” (GALDERMA RESEARCH & DEVELOPMENT, priority 2009, dated 2015):

Assays:
TACE enzyme = TACE enzyme (Homo sapiens, UniProt P78536); assay: Enzymatic test of TACE inhibition (fluorescent substrate); format: biochemical
MMP1 = MMP1 (Homo sapiens (Human), UniProt P03956); assay: Selectivity test, MMP1; format: biochemical
MMP9 = MMP9 (Homo sapiens (Human), UniProt P14780); assay: Selectivity test, MMP9; format: biochemical
Sequence of MMP9 (P14780 94-707): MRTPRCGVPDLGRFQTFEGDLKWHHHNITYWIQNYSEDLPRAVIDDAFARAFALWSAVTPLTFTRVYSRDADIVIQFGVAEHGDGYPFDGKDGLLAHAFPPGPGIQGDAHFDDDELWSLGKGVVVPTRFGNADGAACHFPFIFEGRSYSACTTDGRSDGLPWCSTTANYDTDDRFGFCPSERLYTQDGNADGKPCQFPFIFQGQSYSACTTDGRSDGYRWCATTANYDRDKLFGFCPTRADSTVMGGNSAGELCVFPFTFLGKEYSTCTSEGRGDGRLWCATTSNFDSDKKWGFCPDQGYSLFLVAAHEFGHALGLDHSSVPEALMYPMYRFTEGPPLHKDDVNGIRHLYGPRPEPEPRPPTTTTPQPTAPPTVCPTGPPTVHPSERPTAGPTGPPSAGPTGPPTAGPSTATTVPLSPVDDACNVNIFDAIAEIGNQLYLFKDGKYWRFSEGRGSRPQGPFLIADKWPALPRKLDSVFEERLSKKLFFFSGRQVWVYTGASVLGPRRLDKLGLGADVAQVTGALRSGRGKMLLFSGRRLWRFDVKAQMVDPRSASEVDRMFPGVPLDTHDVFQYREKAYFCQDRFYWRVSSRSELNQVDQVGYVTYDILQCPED

MMP3 = MMP3 (Homo sapiens (Human), UniProt P08254); assay: Selectivity test, MMP3; format: biochemical
Sequence of MMP3 (P08254 100-477): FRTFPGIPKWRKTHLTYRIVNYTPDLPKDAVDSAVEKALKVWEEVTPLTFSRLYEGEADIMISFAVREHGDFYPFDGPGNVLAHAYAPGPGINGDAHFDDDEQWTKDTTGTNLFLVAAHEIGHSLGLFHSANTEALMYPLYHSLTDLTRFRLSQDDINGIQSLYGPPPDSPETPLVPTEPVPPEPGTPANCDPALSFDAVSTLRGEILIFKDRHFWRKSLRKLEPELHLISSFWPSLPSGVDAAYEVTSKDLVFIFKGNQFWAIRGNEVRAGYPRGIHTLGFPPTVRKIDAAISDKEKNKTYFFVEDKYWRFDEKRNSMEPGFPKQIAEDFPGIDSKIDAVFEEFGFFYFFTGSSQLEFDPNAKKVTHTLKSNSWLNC

ADAM10 = ADAM10 (Homo sapiens (Human), UniProt O14672); assay: Selectivity test, ADAM10; format: biochemical
Sequence of ADAM10 (O14672 214-748): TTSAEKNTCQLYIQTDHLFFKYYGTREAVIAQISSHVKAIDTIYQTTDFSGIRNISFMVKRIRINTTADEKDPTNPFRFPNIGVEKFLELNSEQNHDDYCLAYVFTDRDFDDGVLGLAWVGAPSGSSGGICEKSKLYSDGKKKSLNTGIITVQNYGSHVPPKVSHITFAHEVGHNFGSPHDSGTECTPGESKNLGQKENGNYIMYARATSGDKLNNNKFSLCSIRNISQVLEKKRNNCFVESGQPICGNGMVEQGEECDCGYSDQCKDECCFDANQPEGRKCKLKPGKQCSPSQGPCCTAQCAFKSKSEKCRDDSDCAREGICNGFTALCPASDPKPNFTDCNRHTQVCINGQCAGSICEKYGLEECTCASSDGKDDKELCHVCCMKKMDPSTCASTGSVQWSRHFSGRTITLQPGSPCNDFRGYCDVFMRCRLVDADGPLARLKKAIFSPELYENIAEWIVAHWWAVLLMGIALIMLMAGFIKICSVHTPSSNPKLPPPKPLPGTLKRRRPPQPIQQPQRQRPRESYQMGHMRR

ADAM9 = ADAM9 (Homo sapiens (Human), UniProt Q13443); assay: biochemical
Sequence of ADAM9 (Q13443 29-819): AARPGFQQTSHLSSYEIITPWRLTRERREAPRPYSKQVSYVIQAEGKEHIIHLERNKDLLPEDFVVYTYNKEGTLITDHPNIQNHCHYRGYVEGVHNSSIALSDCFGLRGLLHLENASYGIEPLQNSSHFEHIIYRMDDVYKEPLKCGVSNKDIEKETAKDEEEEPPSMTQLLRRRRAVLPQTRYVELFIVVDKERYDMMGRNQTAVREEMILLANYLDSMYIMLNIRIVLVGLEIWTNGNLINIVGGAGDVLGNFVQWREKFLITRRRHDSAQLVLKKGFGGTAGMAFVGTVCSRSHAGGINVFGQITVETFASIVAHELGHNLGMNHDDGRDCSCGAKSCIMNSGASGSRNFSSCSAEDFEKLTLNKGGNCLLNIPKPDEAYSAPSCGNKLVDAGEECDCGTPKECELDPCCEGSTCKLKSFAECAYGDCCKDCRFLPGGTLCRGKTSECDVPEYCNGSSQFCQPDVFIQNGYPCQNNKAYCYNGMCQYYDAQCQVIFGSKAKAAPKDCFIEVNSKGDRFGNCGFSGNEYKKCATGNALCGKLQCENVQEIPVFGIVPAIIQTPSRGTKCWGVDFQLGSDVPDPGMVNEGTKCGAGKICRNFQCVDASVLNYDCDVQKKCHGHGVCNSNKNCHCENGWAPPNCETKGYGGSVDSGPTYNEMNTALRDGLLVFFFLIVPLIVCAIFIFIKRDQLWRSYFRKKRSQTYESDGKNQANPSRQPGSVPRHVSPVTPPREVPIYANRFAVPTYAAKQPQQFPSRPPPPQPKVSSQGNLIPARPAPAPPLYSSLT

[1] = enzymatic test, substrate 40 μM

Sequence of MMP1 (P03956 100-469): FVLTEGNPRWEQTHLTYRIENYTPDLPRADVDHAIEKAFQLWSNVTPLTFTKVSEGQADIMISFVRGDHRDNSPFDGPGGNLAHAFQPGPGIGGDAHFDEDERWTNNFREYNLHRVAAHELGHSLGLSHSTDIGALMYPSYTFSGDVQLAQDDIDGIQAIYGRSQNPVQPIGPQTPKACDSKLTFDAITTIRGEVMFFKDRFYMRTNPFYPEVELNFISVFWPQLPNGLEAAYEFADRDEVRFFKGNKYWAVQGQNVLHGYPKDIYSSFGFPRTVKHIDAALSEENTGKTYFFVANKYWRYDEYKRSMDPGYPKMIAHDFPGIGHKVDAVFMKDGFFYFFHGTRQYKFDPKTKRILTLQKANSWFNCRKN
Sequence of TACE enzyme (P78536 215-824 limits assumed): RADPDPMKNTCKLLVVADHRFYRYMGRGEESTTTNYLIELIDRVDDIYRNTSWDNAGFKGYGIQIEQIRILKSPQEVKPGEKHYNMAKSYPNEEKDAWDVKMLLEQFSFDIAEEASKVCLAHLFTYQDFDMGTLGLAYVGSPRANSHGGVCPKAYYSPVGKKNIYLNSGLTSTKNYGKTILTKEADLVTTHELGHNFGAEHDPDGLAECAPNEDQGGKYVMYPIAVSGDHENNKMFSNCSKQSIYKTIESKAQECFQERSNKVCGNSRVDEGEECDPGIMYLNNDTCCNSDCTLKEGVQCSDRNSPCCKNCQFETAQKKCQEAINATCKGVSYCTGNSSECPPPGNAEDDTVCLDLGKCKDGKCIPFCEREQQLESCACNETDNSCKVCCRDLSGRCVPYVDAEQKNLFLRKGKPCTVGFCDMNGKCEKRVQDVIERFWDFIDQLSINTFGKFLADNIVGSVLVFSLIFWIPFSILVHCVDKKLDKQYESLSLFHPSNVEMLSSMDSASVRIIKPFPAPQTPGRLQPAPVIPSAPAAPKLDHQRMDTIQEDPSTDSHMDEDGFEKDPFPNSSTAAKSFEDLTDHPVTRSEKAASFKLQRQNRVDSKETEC

Structure (SMILES) | % TACE inhibition at 10 μM (TACE enzyme) [%] | IC50 (TACE enzyme; [1]) [nM] | further results
COc1ccc(C(=O)NC[C@@H](C(=O)NO)N2CCN(S(C)(=O)=O)CC2)cc1 [Example 4, N—[(S)-2-hydroxycarbamoyl-2-(4-methane-sulphonylpiperazin-1-yl)ethyl]-4-methoxybenzamide] | 100 | 160 | 
CS(=O)(=O)N1CCN([C@@H](CNC(=O)c2ccc(OCC3CC3)cc2)C(=O)NO)CC1 [Example 5, 4-cyclopropylmethoxy-N—[(S)-2-hydroxycarbamoyl-2-(4-methanesulphonylpiperazin-1-yl)ethyl]benzamide] | 100 | 200 | 
CS(=O)(=O)N1CCN([C@@H](CNC(=O)c2ccc(OCc3ccc(C(F)(F)F)cc3)cc2)C(=O)NO)CC1 [Example 10, N—[(S)-2-hydroxycarbamoyl-2-(4-methane-sulphonylpiperazin-1-yl)ethyl]-4-(4-trifluoromethyl-benzyloxy)benzamide] | 97 | 117 | 
Cc1ccc(COc2ccc(C(=O)NC[C@@H](C(=O)NO)N3CCN(S(C)(=O)=O)CC3)cc2)cc1 [Example 11, N—[(S)-2-hydroxycarbamoyl-2-(4-methane-sulphonylpiperazin-1-yl)ethyl]-4-(4-methylbenzyloxy)-benzamide] | 96 | 95 | 
Cc1cc(COc2ccc(C(=O)NC[C@@H](C(=O)NO)N3CCN(S(C)(=O)=O)CC3)cc2)c2ccccc2n1 [Example 14, N—[(S)-2-Hydroxycarbamoyl-2-(4-methane-sulphonylpiperazin-1-yl)ethyl]-4-(2-methylquinolin-4-ylmethoxy)benzamide] | 98 |  | IC50 (MMP1): 2610 nM; IC50 (ADAM10): 5790 nM; IC50 (MMP3): 6830 nM
CS(=O)(=O)N1CCN([C@@H](CNC(=O)c2ccc(OCc3ccncc3)cc2)C(=O)NO)CC1 [Example 18, N—[(S)-2-Hydroxycarbamoyl-2-(4-methane-sulphonylpiperazin-1-yl)ethyl]-4-(pyridin-4-ylmethoxy)-benzamide] | 98 | 99 | 
Cc1ccc2ccccc2c1COc1ccc(C(=O)NC[C@@H](C(=O)NO)N2CCN(S(C)(=O)=O)CC2)cc1 [Example 19, N—[(S)-2-Hydroxycarbamoyl-2-(4-methane-sulphonylpiperazin-1-yl)ethyl]-4-(2-methylnaphthalen-1-ylmethoxy)benzamide] | 90 | 138 | 
CS(=O)(=O)N1CCN([C@@H](CNC(=O)c2ccc(OCc3ccnc4ccccc34)cc2)C(=O)NO)CC1 [Example 21, N—[(S)-2-hydroxycarbamoyl-2-(4-methane-sulphonylpiperazin-1-yl)ethyl]-4-(quinolin-4-ylmethoxy)benzamide] | 96 | 118 | 
Cc1cc(COc2ccc(C(=O)NC[C@@H](C(=O)NO)N3CCN(Cc4ccccc4)CC3)cc2)c2ccccc2n1 [Example 22, N—[(S)-2-(4-Benzylpiperazin-1-yl)-2-hydroxycarbamoylethyl]-4-(2-methylquinolin-4-yl-methoxy)benzamide] | 97 | 79 | 
Cc1cc(COc2ccc(C(=O)NC[C@@H](C(=O)NO)N3CCN(S(=O)(=O)C(C)C)CC3)cc2)c2ccccc2n1 [Example 23, N-{(S)-2-Hydroxycarbamoyl-2-[4-(propane-2-sulphonyl)piperazin-1-yl]ethyl}-4-(2-methylquinolin-4-ylmethoxy)benzamide] | 97 | 102 | 
Cc1cc(COc2ccc(C(=O)NC[C@@H](C(=O)NO)N3CCN(S(C)(=O)=O)CC3)cc2)c2ccccc2n1.Cl.Cl [Example 24, N—[(S)-2-Hydroxycarbamoyl-2-(4-methane-sulphonylpiperazin-1-yl)ethyl]-4-(2-methylquinolin-4-ylmethoxy)benzamide dihydrochloride] | 98 |  | 
O=C(NCC(C(=O)NO)N1CCN(Cc2ccccc2)CC1)c1ccc(OCc2c(C(F)(F)F)nn3ccccc23)cc1 (stereo not drawn) [Example 27, N-[2-(4-Benzylpiperazin-1-yl)-2-hydroxycarbamoylethyl]-4-(2-trifluoromethylpyrazolo[1,5-a]pyridin-3-ylmethoxy)benzamide] | 95 |  | IC50 (MMP1): > 10000 nM; IC50 (ADAM10): > 10000 nM; IC50 (MMP9): > 10000 nM; IC50 (ADAM9): > 10000 nM; IC50 (MMP3): > 10000 nM

The next lines start with results.

% TACE inhibition at 10 μM (TACE enzyme) [%] | IC50 (TACE enzyme; [1]) [nM] | Structure (SMILES) | further results
100 | 32 | CC#CCOc1ccc(C(=O)NCC(C(=O)NO)N2CCN(S(C)(=O)=O)CC2)cc1 (stereo not drawn) [Example 1, 4-But-2-ynyloxy-N-[2-hydroxycarbamoyl-2-(4-methanesulphonylpiperazin-1-yl)ethyl]benzamide] | 
100 | 28 | CC#CCOc1ccc(C(=O)NC[C@@H](C(=O)NO)N2CCN(S(C)(=O)=O)CC2)cc1 [Example 2, 4-But-2-ynyloxy-N—[(S)-2-hydroxycarbamoyl-2-(4-methanesulphonylpiperazin-1-yl)ethyl]benzamide] | IC50 (MMP1): > 10000 nM; IC50 (MMP9): > 10000 nM; IC50 (TACE enzyme; selectivity table): 28 nM; IC50 (MMP3): 6310 nM
100 | 40 | CS(=O)(=O)N1CCN([C@@H](CNC(=O)c2ccc(OCc3ccccc3)cc2)C(=O)NO)CC1 [Example 6, 4-benzyloxy-N—[(S)-2-hydroxycarbamoyl-2-(4-methanesulphonylpiperazin-1-yl)ethyl]benzamide] | 
100 | 54 | CC#CCOc1ccc(C(=O)NC[C@@H](C(=O)NO)N2CCN(S(=O)(=O)c3ccc(C)cc3)CC2)cc1 [Example 8, 4-but-2-ynyloxy-N-{(S)-2-hydroxycarbamoyl-2-[4-(toluene-4-sulphonyl)piperazin-1-yl]ethyl}benzamide] | 
98 | 21 | CS(=O)(=O)N1CCN([C@@H](CNC(=O)c2ccc(OCc3ccc(F)cc3)cc2)C(=O)NO)CC1 [Example 9, 4-(4-fluorobenzyloxy)-N—[(S)-2-hydroxycarbamoyl-2-(4-methanesulphonylpiperazin-1-yl)ethyl]benzamide] | 
98 | 22 | CC#CCOc1ccc(C(=O)N(C)C[C@@H](C(=O)NO)N2CCN(S(C)(=O)=O)CC2)cc1 [Example 13, 4-But-2-ynyloxy-N—[(S)-2-hydroxycarbamoyl-2-(4-methanesulphonylpiperazin-1-yl)ethyl]-N-methylbenzamide] | 
97 | 35 | CS(=O)(=O)N1CCN([C@@H](CNC(=O)c2ccc(OCC#CCO)cc2)C(=O)NO)CC1 [Example 16, 4-(4-Hydroxybut-2-ynyloxy)-N—[(S)-2-hydroxycarbamoyl-2-(4-methanesulphonylpiperazin-1-yl)-ethyl]benzamide] | 
98 | 70 | COc1ccc(COc2ccc(C(=O)NC[C@@H](C(=O)NO)N3CCN(S(C)(=O)=O)CC3)cc2)cc1 [Example 17, N—[(S)-2-Hydroxycarbamoyl-2-(4-methane-sulphonylpiperazin-1-yl)ethyl]-4-(4-methoxybenzyloxy)-benzamide] | 
90 | 45 | CCN1CCN([C@@H](CNC(=O)c2ccc(OCc3cc(C)nc4ccccc34)cc2)C(=O)NO)CC1 [Example 25, N—[(S)-2-(4-Ethylpiperazin-1-yl)-2-hydroxycarbamoylethyl]-4-(2-methylquinolin-4-ylmethoxy)-benzamide] | 
